The text below walks through data of US8618127B2, “Methods and compositions for alleviating stuttering” (Endo Pharmaceuticals Solutions Inc., priority 2000, dated 2013).

Data set [1] in a line: Stuttering of a patient treated with pagoclone in a double-blind placebo-controlled panic disorder clinical trial. It is filed as in vivo, human. The method, then: A patient is enrolled in a clinical trial examining the efficacy and safety of pagoclone, a drug which works at the GABAA receptor, in the treatment of panic disorder, an anxiety disorder. […] The double-blind placebo-controlled trial conceals the drug type until the conclusion of the trial. During the trial the patient is taking 0.60 mg pagoclone/day (0.20 mg t.i.d.). The patient had never before experienced this sort of an effect on their stuttering and they had taken, in the past, other anti-anxiety medications for their psychiatric condition, none of which had such an effect on their stuttering. During the trial, both they and the clinician treating them in the clinical trial notice the reduction in their stuttering, which is documented at their week 2 visit. […] During the trial they also are taking ibuprofen and a prophylactic for urinary tract infections.

The conditions of data set [2]: Elliot et al. 1985; cited from earlier work.
For data set [3] the following is noted: eight-week course, randomized patients; cited from earlier work.

Regarding `CC(C)CCC(=O)CC1c2ccccc2C(=O)N1c1ccc2ccc(Cl)nc2n1` (single isomer, unassigned; (+)) [pagoclone, (+)2-(7-chloro-1,8-naphthyridine-2-yl)-3-(5-methyl-2-oxo-hexyl)-1-isoindolinone], the “effect on stuttering while taking the drug” value in data set [1] (patient, fairly severe stuttering, 0.60 mg pagoclone/day (0.20 mg t.i.d.), documented at week 2 visit) was “significant reduction in their fairly severe stuttering problem”. The “effect on anxiety and psychiatric condition” value in data set [1] (same patient with panic disorder, 0.60 mg pagoclone/day) is “reduction in their anxiety and improvement in their psychiatric condition”. The “stuttering after stopping the drug” value in data set [1] (same patient, after stopping pagoclone) was “returns to the pre-drug level within a day”. Consider `Cc1nnc2n1-c1ccc(Cl)cc1C(c1ccccc1)=NC2` [Alprazolam], for which the drug-induced stuttering result in data set [2] is “can induce stuttering”.

Consider `O=C(CCCN1CCC(O)(c2ccc(Cl)cc2)CC1)c1ccc(F)cc1` [haloperidol], for which the “effect on stuttering, objective measures of speech” value in data set [3] is “significant improvement”.
